Experimental data as given in US4708956A, “3-position halogenated cephalosporin analogs and pharmaceutical compositions” (Kyowa Hakko Kogyo Co., Ltd., priority 1986, dated 1987).
In brackets after ≈: the same amount, converted by molar mass. Like-named read-outs stand apart in the source and are kept apart here.

Columns and labels:
Escherichia coli Juhl = assay: Heart Infusion Agar Dilution Method, minimum inhibitory concentration; type: cell-based
Method: (§1) The activity is determined by the Heart Infusion Agar Dilution Method (pH 7.2).

Pseudomonas putida F264 = assay: as above; type: cell-based
Method: as §1

[1] = tested on: Staphylococcus aureus 209-p; assay: as above; type: cell-based
Method: as §1

Escherichia coli NIHJC-2 = assay: as above; type: cell-based
Method: as §1

Proteus mirabilis 1287 = assay: as above; type: cell-based; settings: pH 7.2
Method: as §1

[2] = tested on: Staphylococcus aureus Smith; assay: as above; type: cell-based; settings: pH 7.2
Method: as §1

[3] = tested on: Klebsiella pneumoniae Y-60; assay: as above; type: cell-based
Method: as §1

[4] = tested on: Staphylococcus epidermidis; assay: as above; type: cell-based; settings: pH 7.2
Method: as §1

Proteus morganii KY4298 = assay: as above; type: cell-based; settings: Morganella morganii
Method: as §1

Proteus vulgaris 6897 = assay: as above; type: cell-based; settings: pH 7.2
Method: as §1

Proteus rettgeri KY4289 = assay: as above; type: cell-based; settings: Providencia rettgeri
Method: as §1

Serratia marcescens T-55 = assay: as above; type: cell-based
Method: as §1

[5] = tested on: Klebsiella pneumoniae 8045; assay: as above; type: cell-based; settings: pH 7.2
Method: as §1

[6] = tested on: Gram-positive and Gram-negative bacteria; assay: antibacterial activity (general statements); type: cell-based; settings: general or comparative statement
[7] = tested on: Gram-positive and Gram-negative bacteria; settings: J. Am. Chem. Soc., 96, 7584 (1974); J. Med. Chem., 20, 551 (1977); cited from earlier work
[8] = Escherichia coli Juhl, Heart Infusion Agar Dilution Method, pH 7.2, read-out: Minimum Inhibitory Concentration
[9] = Pseudomonas putida F264, Heart Infusion Agar Dilution Method, pH 7.2, read-out: Minimum Inhibitory Concentration
[10] = Staphylococcus aureus 209-p, Heart Infusion Agar Dilution Method, pH 7.2, read-out: Minimum Inhibitory Concentration
[11] = NIHJC2, Escherichia coli NIHJC-2, Heart Infusion Agar Dilution Method, pH 7.2, read-out: Minimum Inhibitory Concentration
[12] = Y60, Klebsiella pneumoniae Y-60, Heart Infusion Agar Dilution Method, pH 7.2, read-out: Minimum Inhibitory Concentration
[13] = Proteus morganii KY4298, Heart Infusion Agar Dilution Method, pH 7.2, read-out: Minimum Inhibitory Concentration
[14] = Proteus rettgeri KY4289, Heart Infusion Agar Dilution Method, pH 7.2, read-out: Minimum Inhibitory Concentration
[15] = T55, Serratia marcescens T-55, Heart Infusion Agar Dilution Method, pH 7.2, read-out: Minimum Inhibitory Concentration

Compound	MIC (Escherichia coli Juhl; [8])	MIC (Pseudomonas putida F264; [9])	MIC [1, 10]	MIC (Escherichia coli NIHJC-2; [11])	MIC (Proteus mirabilis 1287)	MIC [2]	MIC [3, 12]	MIC [4]	MIC (Proteus morganii KY4298; [13])	MIC (Proteus vulgaris 6897)	MIC (Proteus rettgeri KY4289; [14])	MIC (Serratia marcescens T-55; [15])	MIC [5]	other results
CO/N=C(\C(=O)N[C@@H]1C(=O)N2C(C(=O)O)=C(Cl)CC[C@H]12)c1ccco1 (relative stereo) [c, cis-7-[2-(2-furyl)-2-syn-methoxyiminoacetamido]-3-chloro-1-azabicyclo[4,2,0]oct-2-en-8-on-2-carboxylic acid]	50 µg/mL (≈ 136 µM)	> 100 µg/mL	6.25 µg/mL (≈ 17 µM)	50 µg/mL (≈ 136 µM)	12.5 µg/mL (≈ 34 µM)	12.5 µg/mL (≈ 34 µM)	50 µg/mL (≈ 136 µM)	25 µg/mL (≈ 68 µM)	> 100 µg/mL	25 µg/mL (≈ 68 µM)	25 µg/mL (≈ 68 µM)	> 100 µg/mL	12.5 µg/mL (≈ 34 µM)	
CO/N=C(\C(=O)N[C@@H]1C(=O)N2C(C(=O)O)=C(Cl)CC[C@H]12)c1csc(N)n1 (relative stereo) [d, (±)-cis-7-[2-(2-aminothiazole-4-yl)-2-syn-methoxyiminoacetamido]-3-chloro-1-azabicyclo[4,2,0]oct-2en-8-on-2-carboxylic acid]	0.4 µg/mL (≈ 1 µM)	3.12 µg/mL (≈ 7.8 µM)	50 µg/mL (≈ 125 µM)	0.78 µg/mL (≈ 1.95 µM)	0.1 µg/mL (≈ 0.25 µM)	50 µg/mL (≈ 125 µM)	0.78 µg/mL (≈ 1.95 µM)	50 µg/mL (≈ 125 µM)	0.4 µg/mL (≈ 1 µM)	0.4 µg/mL (≈ 1 µM)	0.1 µg/mL (≈ 0.25 µM)	1.56 µg/mL (≈ 3.9 µM)	≤ 0.05 µg/mL	
N[C@@H](C(=O)N[C@@H]1C(=O)N2C(C(=O)O)=C(Cl)CC[C@H]12)c1ccccc1 [a, (6R, 7S) 7-(R)-phenylglycinamido-3-chloro-1-azabicyclo[4,2,0]oct-2-en-8-on-2-carboxylic acid]		100 µg/mL (≈ 286 µM)							> 100 µg/mL	100 µg/mL (≈ 286 µM)	100 µg/mL (≈ 286 µM)			antibacterial (antimicrobial) activity, in words [6]: greater antimicrobial activity
CC(=O)OCC1=C(C(=O)O)N2C(=O)C(NC(=O)Cc3cccs3)C2CC1 (racemic) [(i)-1-carbacephalotin]														antibacterial activity, in words (literature) [7]: having antibacterial activity
N[C@@H](C(=O)N[C@@H]1C(=O)N2C(C(=O)O)=C(Cl)CC[C@H]12)c1ccc(O)cc1 [e, (6R, 7S) 7-(R)-p-hydroxyphenyl-glycinamido-3-chloro-1-azabicyclo[4,2,0]oct-2-en-8-on-2-carboxylic acid]	1.56 µg/mL (≈ 4.26 µM)	100 µg/mL (≈ 273 µM)	0.4 µg/mL (≈ 1.09 µM)	1.56 µg/mL (≈ 4.26 µM)	3.12 µg/mL (≈ 8.53 µM)	1.56 µg/mL (≈ 4.26 µM)	12.5 µg/mL (≈ 34.2 µM)	1.56 µg/mL (≈ 4.26 µM)	> 100 µg/mL	100 µg/mL (≈ 273 µM)	100 µg/mL (≈ 273 µM)	6.25 µg/mL (≈ 17.1 µM)	0.78 µg/mL (≈ 2.13 µM)	
CCN1CCN(C(=O)N[C@@H](C(=O)N[C@@H]2C(=O)N3C(C(=O)O)=C(Cl)CC[C@H]23)c2ccccc2)C(=O)C1=O [b, (6R, 7S) 7-[(R)-2-phenyl-2-(4-ethyl-2,3-dioxopiperadinylcarbonylamino)-acetamido]-3-chloro-1-azabicyclo[4,2,0]oct-2-en-8-on-2-carboxylic acid]	3.12 µg/mL (≈ 6.02 µM)	25 µg/mL (≈ 48.3 µM)	0.4 µg/mL (≈ 0.772 µM)	3.12 µg/mL (≈ 6.02 µM)	1.56 µg/mL (≈ 3.01 µM)	1.56 µg/mL (≈ 3.01 µM)	12.5 µg/mL (≈ 24.1 µM)	1.56 µg/mL (≈ 3.01 µM)	3.12 µg/mL (≈ 6.02 µM)	≤ 0.05 µg/mL	3.12 µg/mL (≈ 6.02 µM)	3.12 µg/mL (≈ 6.02 µM)	0.1 µg/mL (≈ 0.193 µM)	
CC1=C(C(=O)O)N2C(=O)[C@@H](NC(=O)[C@H](N)c3ccccc3)[C@H]2SC1 [f, Cephalexin, reference compound]														MIC (Escherichia coli Juhl; Escherichia coli, pH 7.2, read-out: Minimum Inhibitory Concentration): 12.5 µg/mL (≈ 36 µM); MIC (Pseudomonas putida F264; Pseudomonas putida, F264, pH 7.2, read-out: Minimum Inhibitory Concentration): > 100 µg/mL; MIC ([1]; Staphylococcus aureus, 209P, pH 7.2, read-out: Minimum Inhibitory Concentration): 0.2 µg/mL (≈ 0.576 µM); MIC (Escherichia coli NIHJC-2; Escherichia coli, NIHJC2, pH 7.2, read-out: Minimum Inhibitory Concentration): 12.5 µg/mL (≈ 36 µM); MIC ([3]; Klebsiella pneumoniae, Y60, pH 7.2, read-out: Minimum Inhibitory Concentration): 50 µg/mL (≈ 144 µM); MIC (Proteus morganii KY4298; KY4298, pH 7.2, read-out: Minimum Inhibitory Concentration): > 100 µg/mL; MIC (Proteus rettgeri KY4289; KY4289, pH 7.2, read-out: Minimum Inhibitory Concentration): > 100 µg/mL; MIC (Serratia marcescens T-55; Serratia marcescens, T55, pH 7.2, read-out: Minimum Inhibitory Concentration): 50 µg/mL (≈ 144 µM)
